The values that follow come from patent publication EP0593765A1, “6-SUBSTITUTED LIPID A ANALOG” (priority 1991, dated 1993).

One series deals with neutrophils. The experiment in a line: O₂⁻ production stimulating activity in neutrophils. The format is cell-based, C3H/HeN mouse. Conditions: compound 10 µg/mℓ, 37°C for 60 minutes, then cytochrome C (80 µM) and FMLP (0.1 µM); SOD-inhibitable cytochrome C reduction. The procedure: The O₂⁻ production stimulating activity in neutrophils was evaluated in the following experimental system [see J. Exp. Med., Vol. 160, 1656 - 1671, 1984].
In the peritoneal cavity of C3H/HeN mouse (male, 8 - 9 weeks old), physiological saline containing 0.2% (w/v) of casein was administered. Three hours later, peritoneal exudate cells (90% or more of which are neutrophils) induced in the peritoneal cavity were collected. These cells (1.7 × 10⁶ cells/ml/tube) were incubated in the presence of the compound of the invention (10 µg/mℓ) at 37°C for 60 minutes, and cytochrome C (80 µM) and fomyl-methionyl-leucyl-phenylalanine (FMLP) (0.1 µM) were added. After reaction for 10 minutes at 37°C in the presence of or in the absence of superoxide dismutase (SOD), the SOD-inhibitable cytochrome C reduction quantity was calculated from the difference of absorbances at 550 nm and 541.7 nm and the molar absorption coefficient (16.5 × 10³). The O₂⁻ production stimulating activity was expressed in the following stimulation percentage. [formula] The compounds of the invention presented the activities as shown in the below table.

In a further series the test system is spleen cells. In words: Mitogen activity (³H-thymidine uptake into spleen cells). The note with it: 48 hours incubation. Format: cell-based, C3H/HeN mouse. The procedure: The mitogen activity was evaluated in the following experiment [see Eur. J. Immunol., Vol. 14, 109 - 114, 1984].
The spleen of C3H/HeN mouse (male, 6 - 10 weeks old) was aseptically removed, rubbed and loosened in MEM, and passed through stainless steel mesh, and spleen cells were sampled. After hemolyzing the erythrocytes mixed in the spleen cells, the cells were suspended in RPMI 1640 medium containing 5% FBS and presented for the experiment.
The mitogen activity of the compound of the invention was evaluated by measuring the quantity of ³H-thymidine taken into the spleen cells treated with the compound of the invention. That is, the spleen cells adjusted to 5 × 10⁶ cells/well (100 µℓ) were seeded in a 96-well plate, and the compound of the invention (100 µℓ) at specified concentration was added to the spleen cells. After incubation for 48 hours at 37°C in the presence of 5% carbon dioxide, 1 µCi/well (50 µℓ) of ³H-thymidine was added to the incubated cells, which were incubated for further 4 hours. The cells were washed in phosphate buffer saline (PBS), and the titer of ³H-thymidine (radioactivity) taken in the cells was determined by liquid scintillation counter. […]

The test system of the next series is interleukin-1 (IL-1). The experiment in a line: IL-1 producing activity (peripheral blood monocyte fraction; supernatant measured on A375 Met-Mix cells). Format: cell-based, human. Conditions: 50 µg of compound, 1 × 10⁶ cells/well, 48 hours at 37°C; reciprocal of supernatant dilution showing 50% inhibition. The procedure: The producing activity of interleukin-1 (IL-1) was determined in the following experiment [see Biochem. Biopys. Res. Comm., Vol. 154, 1189 - 1196, 1988].
From 50 mℓ of human peripheral blood, buffy coat was isolated, and peripheral blood monocyte fraction was obtained by using Lymphoprep (Wako Pharmaceutical). After hemolyzing mixed erythrocytes, cells were rinsed twice in Dulbecco's modified Eagle medium (MEM), and suspended in the RPMI 1640 medium containing 5% fetal cow serum (FCS) and 2.5 × 10⁻⁵ M 2-mercaptoethanol. The cells (1 × 10⁶ cells/well) were incubated in a 24-well plate containing 50 µg (50 µℓ) of the compound of the invention for 48 hours at 37°C in the presence of 5% carbon dioxide, and the supernatant of culture was samples as IL-1 induction supernatant. The IL-1 activity in the IL-1 induction supernatant was evaluated by measuring the growth inhibitory activity of IL-1 susceptible human melanoma cell A375 Met-Mix. The cells of A375 Met-Mix (2 × 10³ cells/0.1 mℓ/well) were suspended in RPMI 1640 medium containing 10% FCS, and the IL-1 induction supernatant (0.1 mℓ/well) diluted in steps was added and incubated in a 96-well plate for 96 hours at 37°C in the presence of 5% carbon dioxide. After incubation, the viable cells were fixed with methanol, and the cells were stained with 0.2% crystal violet, and the cells were dissolved with 1% SDS, and the absorbance at 550 nm was measured. […]

The test system of the next series is TNF. The experiment in a line: TNF producing activity (TNF in serum measured by damage of L929 cells). The format is in vivo, ICR mouse. Conditions: Corynebacterium parvum primed mouse, 10 µg/mouse intravenously nine days later, blood sampled 90 minutes later; reciprocal of serum dilution showing 50% cytotoxicity. The procedure:
The producing activity of TNF was evaluated in the following experiment.
The first stimulating agent, 5% suspension (0.2 mℓ physiological saline) of Corynebacterium parvum was intravenously administered to ICR mouse (female, 6 - 7 weeks old). Nine days later, as the second stimulating agent, 10 µg/mouse of the compound of the invention was intravenously administered, and 90 minutes later, 0.5 to 1 mℓ of blood was sampled from the retro-orbital plexus. After being allowed to stand at room temperature for 5 to 6 hours, the blood was centrifuged at 7200 × g for 5 minutes to separate the serum. The serum was incubated at 56°C for 30 minutes for inactivation before use in the following experiment.
The TNF activity in serum was determined by measuring the damage of L929 cells were adjusted to a concentration of 6 × 10⁴ cells/well (0.1 mℓ) on the culture medium of RPMI 1640 containing 10% of fetal bovine serum (FBS) and 2 µg/mℓ of actinomycin D, and were seeded on a 96-well plates. The serum was diluted in steps in the RPMI 1640 medium with 10% FBS, and added to the cell by 0.1 mℓ for each. After incubation for 48 hours at 37°C, the viable cells were fixed with methanol. After staining the cells with 0.2% crystal violet, the cells were dissolved in 1% sodium dodecyl sulfate (SDS), and the absorbance at 550 nm was measured. […]

Series [1] in a line: Lethal toxicity by galactosamine loading. Details: species or system C57BL mouse. The note with it: mouse, in vivo, ip; 10 mg D-galactosamine hydrochloride intraperitoneally, compound in the caudal vein immediately after; observed to the seventh day; read-out: LD₅₀ (Galactosamine load). The procedure:
The lethal toxicity by galactosamine loading was evaluated in the following experiment [see J. Biochem., Vol. 98, 395 - 406, 1985].
To C57BL mouse (female, 7 weeks old), 10 mg of D-galactosamine hydrochloride was intraperitoneally administered, and the compound of the invention was administered in the caudal vein immediately after that.

The mark [2] stands for this setting: compound concentration 10 µg/mℓ.

Each structure is given as a SMILES string.

Consider `CCCCCCCCCCCCCCC(CCCCCCCCCCCC)C(=O)O[C@H]1[C@H](OP(=O)(O)O)[C@@H](COC(=O)C(C)(C)C)OC[C@@H]1NC(=O)C[C@H](O)CCCCCCCCCCC` (mixture of isomers) [Example 4, 1,5-Anhydro-2-deoxy-3-O-{(2RS)-2-dodecylhexadecanoyl}-2-{(3R)-3-hydroxytetradecanamido}-4-O-phosphono-6-O-pivaloyl-D-glucitol], for which, in the series on neutrophils, the Stimulation percentage is listed as 293. In addition, the results for the Simulation index in the series on spleen cells (compound concentration 1 µg/mℓ) and with spleen cells (setting [2]) were 5.1 and 19.6, respectively. In addition, the IL-1 titer in the series on interleukin-1 (IL-1) is listed as 16 U/mℓ.

As for `CCCCCCCCCCCCCCC(CCCCCCCCCCCC)C(=O)O[C@H]1[C@H](OP(=O)(O)O)[C@@H](CO)OC[C@@H]1NC(=O)C[C@H](O)CCCCCCCCCCC` (stereo partly shown) [Control compound, reference compound], the “TNF titer in serum” value with TNF was 538900 U/mℓ. For the same molecule, the Stimulation percentage in the series with neutrophils is given as 80. In addition, the Simulation index with spleen cells (compound concentration 1 µg/mℓ) was 2.7; with spleen cells (setting [2]), 18.3. Also, the IL-1 titer with interleukin-1 (IL-1) was found to be 15 U/mℓ. For the same molecule, the LD50 at 168 h in series [1] was 0.0028 mg/kg.

On to `CCCCCCCCCCCCCCC(CCCCCCCCCCCC)C(=O)O[C@H]1[C@H](OP(=O)(O)O)[C@@H](COC(=O)CCC(=O)OC)OC[C@@H]1NC(=O)C[C@H](O)CCCCCCCCCCC` (stereo partly shown) [Example 1], for which the “TNF titer in serum” value in the series with TNF was found to be 727800 U/mℓ. The molecule also displayed a Stimulation percentage in the series on neutrophils of 363. Besides, the figures for the Simulation index in the series on spleen cells (compound concentration 1 µg/mℓ) and in the series with spleen cells (setting [2]) were 14.8 and 26.5, respectively. The IL-1 titer with interleukin-1 (IL-1) was determined as 24 U/mℓ. The LD50 at 168 h in series [1] was 0.0299 mg/kg.
